Source: US4524070A, “Aminated derivatives of pyridazine substituted in 6 position by a heterocycle or an alicycle and compositions, said derivatives being active on the central nervous system” (Sanofi, priority 1983, dated 1985)

Legend:
[1] = system: ptosis induced by reserpine; experiment: Antagonism of ptosis induced by reserpine; type: in vivo, mouse (female CDI Charles River); conditions: Mus musculus, ip, simultaneous with reserpine 2 mg/kg i.v.; read 1 hour after; batches of 10 mice
Experimental: Antagonism of ptosis induced by reserpine This test described by GOURET (Journal de Pharmacologie, Paris, 1973, 4 (1), 105-128) was carried out on the female CDI (Charles River) mouse weighing 20±1 g. Reserpine induces a ptosis 1 hour after its intravenous administration; certain antidepressants oppose this ptosis. The following protocol was chosen. The substances to be studied were administered i.p. The reserpine was administered simultaneously by the intravenous route at the dose of 2 mg/kg. 1 hour after administration of reserpine, the number of animals not presenting ptosis was noted. This test was carried out on batches of 10 mice and the percentage of animals not presenting ptosis was determined. The results are expressed in effective dose 50 (ED50) or dose preventing ptosis in 50% of the animals treated.

[2] = system: central serotoninergic transmission; experiment: Potentialization of the head twitches induced by 5-hydroxytryptophane (5-HTP test); type: in vivo, mouse (female CDI Charles River); conditions: 1 hour before 5-hydroxytryptophane 200 mg/kg i.p., % with respect to control mice
Experimental: Potentialization of the head twitches induced by 5-hydroxytryptophane
The 5-hydroxytryptophane, precursor of the 5-hydroxytryptamine, induces in the mouse typical behaviour characterized by sudden head twitches.
At time zero, the product to be studied is administered by the intraperitoneal route then, 1 hour afterwards, a single dose (200 mg/kg) of 1-5-hydroxytryptophane in suspension in distilled water is in turn administered by the same route. Each animal (female CDI Charles River mouse weighing from 22 to 24 g) is immediately placed in a cylindrical glass beaker. The number of head twitches is counted for 20 minutes.
For each dose of the product to be tested, batches of 10 animals are experimented on, in comparison with a control batch which receives only the vehicle.
The results are expressed in % with respect to the average score obtained in the control mice.

monoamine oxydase A = biological target: T1, monoamine oxydase A (Rattus norvegicus, UniProt P21396); experiment: Measurement of the MAO A activity in vitro; type: biochemical; conditions: rat striatum, 14C 5-hydroxytryptamine 480 μM, pH 7.40, 10 minutes
T1 construct: using the striatum of rate as source of enzyme; from tissue; host or cells: rat striatum homogenate
T1 sequence (P21396 1-526): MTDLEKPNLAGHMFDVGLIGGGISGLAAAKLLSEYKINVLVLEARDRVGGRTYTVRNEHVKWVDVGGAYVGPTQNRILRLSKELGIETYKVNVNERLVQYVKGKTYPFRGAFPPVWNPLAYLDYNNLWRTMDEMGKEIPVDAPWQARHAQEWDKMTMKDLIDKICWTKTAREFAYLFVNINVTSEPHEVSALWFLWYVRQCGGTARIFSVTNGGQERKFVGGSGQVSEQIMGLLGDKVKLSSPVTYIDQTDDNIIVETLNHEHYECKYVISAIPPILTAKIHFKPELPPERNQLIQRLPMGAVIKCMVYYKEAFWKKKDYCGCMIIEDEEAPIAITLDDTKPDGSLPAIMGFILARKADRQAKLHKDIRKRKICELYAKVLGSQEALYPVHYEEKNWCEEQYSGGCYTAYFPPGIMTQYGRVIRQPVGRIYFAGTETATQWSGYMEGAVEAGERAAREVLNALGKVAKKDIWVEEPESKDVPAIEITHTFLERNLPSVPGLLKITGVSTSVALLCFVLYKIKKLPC
Experimental: Measurement of the MAO A activity in vitro
After dissection, the tissues are homogenized in 16 volumes (weight per volume) of iced phosphate buffer (0.1M, pH=7.40). […] The acid metabolites are extracted in 7 ml of a toluene/ethyl acetate (1:1, vol/vol) mixture then counted by liquid scintillation. The concentration of the product tested which inhibits the control activity by 50% (I.C.50) is determined graphically.

dopaminergic activity = experiment: Rotations test: behaviour of rotation after unilateral lesion of the striatum (dopaminergic activity); type: in vivo, mouse (female Charles River CDI); conditions: 1 hour after administration, counted for 2 minutes
Experimental: This was studied by analysis of the behaviour of rotation in the mouse after unilateral lesion of the striatum (P. Protais et al., J. Pharmacol., 1976, 7, 251).
Female Charles River CDI mice weighing from 20 to 24 g were previously subjected to a unilateral lesion of the striatum by stereotaxic injection of 6-hydroxydopamine at the rate of 8 mcg per animal. One week after this operation, the products to be studied were administered by the intraperitoneal route to groups of 7 mice. 1 hour after administration of the product, the number of rotations is determined for a period of 2 minutes. The rotations ispilateral with respect to the lesion are counted positively and the contralateral rotations are counted negatively.
The algebraic sum of the rotations for a group of treated animals is compared with that of the group of control animals having received only the vehicle (physiological serum).
The results are expressed in % variation of the rotations of the treated animals with respect to the control animals.

[3] = biological target: cholinergic receptors of muscarinic type; type: binding; conditions: rat cerebra without cerebellum, 0.05 nM QNB (^3 H), 25° C., 1 hour, pH 7.4; read-out: Bond with QNB (^3 H) IC50
[4] = dose 10 mg/kg i.p., result in words

Compound: Cc1cc(-c2cccs2)nnc1NCCN1CCOCC1.Cl.Cl [CM 30387, 3-morpholinoethylamino-4-methyl-6-(2-thienyl)pyridazine, dihydrochloride]
- ED50 [1]: 4.8 mg/kg
- 5-HTP test % variation ([2]; dose 8 mg/kg i.p., **p 0.01): 632%
- MAO A Inhibition IC50 (monoamine oxydase A): 10 mg/kg
- Rotations test % variation (dopaminergic activity; [4]): Inactive
- IC50 [3]: 24 µM

Compound: Cc1cc(-c2ccsc2)nnc1NCCN1CCOCC1.Cl.Cl [CM 30388, 3-morpholinoethylamino-4-methyl-6-(3-thienyl)-pyridazine, dihydrochloride]
- ED50 [1]: 10.3 mg/kg
- 5-HTP test % variation ([2]; dose 8 mg/kg i.p., **p 0.01): 647%
- MAO A Inhibition IC50 (monoamine oxydase A): 7.8 mg/kg
- Rotations test % variation (dopaminergic activity; [4]): Inactive
- IC50 [3]: 18 µM

Compound: Cc1cc(C2CCCCC2)nnc1NCCN1CCOCC1.Cl.Cl [CM 30390, 3-morpholinoethylamino-4-methyl-6-cyclohexyl-pyridazine; dihydrochloride]
- ED50 [1]: 4.5 mg/kg
- 5-HTP test % variation ([2]; dose 7.5 mg/kg i.p., *p 0.05): 219%
- Rotations test % variation (dopaminergic activity; [4]): Inactive
- IC50 [3]: 14 µM

Compound: Cc1cc(-c2ccccc2)nnc1NCCN1CCOCC1 [Minaprine, reference compound]
- ED50 [1]: 5 mg/kg
- 5-HTP test % variation ([2]; dose 10 mg/kg i.p., *p 0.05): 257%
- MAO A Inhibition IC50 (monoamine oxydase A): 16 mg/kg
- Rotations test % variation (dopaminergic activity; dose 0.5 mg/kg i.p., vs control animals, **p 0.01): -79%
- IC50 [3]: 100 µM
